{
  "source": "patent US12473344B2",
  "about": "“Chimeric antigen receptor polypeptides and methods of using same” (The Board of Trustees of the Leland Stanford Junior …, priority 2018, dated 2025)",
  "key": {"[1]": {"system": "HCV NS3 protease", "conditions": "for CAR expression after removal of the protease inhibitor by washing / CAR expression after incubation with protease inhibitor: B7H3 CAR-SMASh", "protocol": "(§1) Flow cytometry of samples was performed on an LSR Fortessa (BD Bioscience) and data were analyzed using FlowJo software. B7H3 CARs were detected using B7H3 Fc. GD2 and CD19 CARs were detected by 1A7 and FMC63 anti-idiotype antibody, respectively. CD 22 CARs were detected using biotinylated protein L and APC conjugated streptavidin. FACS plots were gated on live single T cells. Untransduced T cells (“Mock”) were used as controls.\n(§2) CAR T cells were incubated in the indicated concentration of drug in T cell culture media (above) until analysis by FACS. Media was changed every 48-72 hours. Removal of drug was achieved by washing CAR T cells in T cell culture media 3 times."}, "[2]": {"system": "B7H3 (low)-expressing Nalm6 GFP tumor cells", "experiment": "Co-culture killing assay, low antigen (tumor GFP fluorescence)", "type": "cell-based", "conditions": "3 μM, various amounts of time, B7H3 (low) targets", "protocol": "(§3) CAR T cells were co-cultured with indicated cancer cell lines, engineered to constitutively express green fluorescent protein, on day 10 post activation in 96-well plates at a ratio of 1:1 (50,000 cells each). Cancer cell fluorescence was monitored by time-lapse microscopy. Total integrated fluorescence intensity was calculated and plotted as a function of time. Co-culture supernatant was harvested after 24 hours of co-culture and analyzed for the presence of cytokine. Cytokine in culture supernatant was quantified using the Human IL-2 ELISA MAX™ and Human IFN-γ ELISA MAX™ Deluxe kits (BioLegend)."}, "[3]": {"system": "B7H3-expressing Nalm6 GFP", "experiment": "Cytokine in co-culture supernatant (IFN-γ ELISA)", "type": "cell-based", "protocol": "as §3"}, "[4]": {"system": "T cells", "experiment": "T cell aggregation during in vitro culture (microscope images)", "type": "cell-based", "conditions": "CAR-SMASh T cells incubated with inhibitor"}, "[5]": {"system": "B7H3-expressing Nalm6 GFP tumor cells", "experiment": "Co-culture killing assay (tumor GFP fluorescence)", "type": "cell-based", "conditions": "for cytotoxicity of B7H3 CAR-SMASh T cells incubated with drug prior to co-culture: 3 μM, various amounts of time (from 24 h)", "protocol": "Cancer cell fluorescence was monitored by time-lapse microscopy. Total integrated fluorescence intensity was calculated and plotted as a function of time. […] Cytokine in culture supernatant was quantified using the Human IL-2 ELISA MAX™ and Human IFN-γ ELISA MAX™ Deluxe kits (BioLegend)."}, "[6]": {"system": "markers of T cell exhaustion", "experiment": "Flow cytometry of activation/exhaustion-associated markers on CAR-SMASh T cells", "type": "cell-based, human", "excerpt": "Asunaprevir (ASV), danoprevir (DPV), simeprevir (SPV), and grazoprevir (GPV) were purchased from ApexBio. Cell surface markers were stained with mouse monoclonal antibodies targeting PD-1 (PE-Cy7, eBioscience), LAG3 (PE, eBioscience), Tim-3 (BV 510, BioLegend), and B7-H3 (PE, R&D Systems). CAR molecules were stained with recombinant B7-H3 Fc (R&D Systems), protein L (Pierce Protein Biology), 1A7 anti-idiotype antibody, or FMC63 anti-idiotype antibody 136.20.1 conjugated in house using DyLight 650 Antibody Labeling Kit (Thermo Fisher). T cells were cultured in AIM V (Thermo Fisher) supplemented with 5% fetal bovine serum (Gibco), 100 U/mL rhIL-2 (PeproTech), 2 mM L-glutamine, 10 mM HEPES, 100 U/mL penicillin, and […] streptomycin (Invitrogen). Cancer cell lines were cultured in RPMI (Thermo Fisher) supplemented with 10% fetal bovine serum, 2 mM L-glutamine, 10 mM HEPES, 100 U/mL penicillin, and […] streptomycin.\nas §1, §2"}, "[7]": {"system": "Nalm6 leukemia cells expressing B7H3 and firefly luciferase", "experiment": "In vivo Nalm6 leukemia model, bioluminescence imaging", "design": "species or system NSG mice", "conditions": "50 mg/kg grazoprevir+25 mg/kg ritonavir three times per day by oral gavage", "protocol": "NSG mice were infused with 10^6 Nalm6 leukemia cells expressing B7H3 and firefly luciferase. Four days later, mice were infused with 8×10^6 B7H3-BBz-SMASh CART cells or mock untransduced control cells. Mice that received B7H3-BBz-SMASh CAR T cells were either administered drug (50 mg/kg grazoprevir+25 mg/kg ritonavir) or vehicle (50% polyethylene glycol 300) three times per day by oral gavage. Bioluminescence imaging was used to follow the expansion of the firefly luciferase-expressing Nalm6 cells.\nAssessed in this example was whether B7H3 CAR-nanoluciferase-SMASh CAR-T cell activity could be controlled in vivo against Nalm6 leukemia cells. NSG mice were infused with 10^6 Nalm6 leukemia cells expressing B7H3 antigen and firefly luciferase by tail vein injection. Four days later, mice were infused with 8×10^6 B7H3 CAR-nanoluciferase-SMASh CAR-T cells or mock un-transduced control T cells by tail vein injection. Mice in the “CAR OFF” group were administered 50 mg/kg grazoprevir+25 mg/kg ritonavir (a pharmacokinetic enhancer of grazoprevir) two to three times per day by oral gavage. Bioluminescence imaging was used to follow the expansion of the firefly luciferase-expressing Nalm6 cells."}, "[8]": {"system": "CAR expression on T cells in vivo", "experiment": "In vivo CAR expression by nanoluciferase imaging", "conditions": "MED8A mice, 50 mg/kg grazoprevir+25 mg/kg ritonavir two to three times per day by oral gavage", "protocol": "In a further study, real-time expression of a C-terminal nanoluciferase (nLuc) domain-containing CAR was monitored in vivo by nanoluciferase-based imaging.\nNext, in vivo CAR expression in the mice described in FIG. 27 was assessed by nanoluciferase imaging. Mice were injected with 200 μL of Nano-Glo substrate that was diluted 40× in PBS. After a 6-minute incubation period, the mice were imaged on an IVIS Spectrum imager."}, "[9]": {"system": "GFP-labeled tumor cells expressing cognate antigen", "experiment": "Co-culture killing assay of several CAR-SMASh T cells in presence of drug", "type": "cell-based", "conditions": "3 μM asunaprevir", "protocol": "as §3"}, "[10]": {"conditions": "loss of CAR expression and exhaustion markers (FIG. 6, FIG. 9)"}},
  "data": [
    {"compound": "C=C[C@@H]1C[C@]1(NC(=O)[C@@H]1C[C@@H](Oc2ncc(OC)c3ccc(Cl)cc23)CN1C(=O)[C@@H](NC(=O)OC(C)(C)C)C(C)(C)C)C(=O)NS(=O)(=O)C1CC1", "note": "[asunaprevir, Asunaprevir]", "values": [
      {"measurement": "CD19 CAR-SMASh expression after incubation with protease inhibitor", "setting": "[1]; 3 μM, various amounts of time", "value": "decrease in CD19 CAR-SMASh expression"},
      {"measurement": "CD22 CAR-SMASh expression after incubation with protease inhibitor", "setting": "[1]; 3 μM, various amounts of time", "value": "decrease in CD22 CAR-SMASh expression"},
      {"measurement": "GD2 CAR-SMASh expression after incubation with protease inhibitor", "setting": "[1]; 3 μM, various amounts of time", "value": "decrease in GD2 CAR-SMASh expression"},
      {"measurement": "CAR expression after removal of the protease inhibitor by washing", "setting": "[1]", "value": "recovery of CAR expression"},
      {"measurement": "CAR expression after incubation with protease inhibitor", "setting": "[1]; 3 μM, various amounts of time", "value": "decrease in CAR expression"},
      {"measurement": "time to full CAR re-expression after removal of drug", "setting": "[1]; B7H3 SMASh-CAR T cells", "value": "≤ 72", "unit": "h"},
      {"measurement": "time at which reduction in CAR expression was maximal", "setting": "[1]; B7H3 SMASh-CAR T cells, 3 μM", "value": 96, "unit": "h"},
      {"measurement": "time within which reduction in CAR expression occurred", "setting": "[1]; B7H3 SMASh-CAR T cells, 3 μM", "value": "≤ 24", "unit": "h"},
      {"measurement": "reduction of CAR expression", "setting": "[1]; B7H3 SMASh-CAR T cells, ex vivo, 3 μM (FIG. 4)", "value": "greater than 90%"},
      {"measurement": "CAR re-expression after removal of drug", "setting": "[1]; B7H3 SMASh-CAR T cells, within 24 h of removal", "value": "approximately 1.5 log"},
      {"measurement": "cytotoxicity of B7H3 CAR-SMASh T cells incubated with drug prior to co-culture", "setting": "[2]", "value": "reduced cytotoxicity"},
      {"measurement": "time to restoration of interferon production after removal", "setting": "[3]", "value": "≤ 24", "unit": "h"},
      {"measurement": "interferon production in response to antigen expressing targets", "setting": "[3]; drug-induced inhibition of CAR expression", "value": "very low levels"},
      {"measurement": "T cell aggregation during in vitro culture", "setting": "[4]", "value": "resistant to aggregation"},
      {"measurement": "cytotoxicity of B7H3 CAR-SMASh T cells incubated with drug prior to co-culture", "setting": "[5]", "value": "reduced cytotoxicity"},
      {"measurement": "cytotoxicity of B7H3 CAR-SMASh T cells incubated with drug prior to co-culture", "setting": "[5]; listed as asumaprevir", "value": "significant reduction in killing"},
      {"measurement": "cytotoxicity of B7H3 CAR-SMASh T cells after drug removal prior to co-culture", "setting": "[5]; drug removed for various amounts of time", "value": "potent killing of tumor targets indistinguishable from constitutively expressed, non-regulated CAR T cells"},
      {"measurement": "expression of activation/exhaustion markers", "setting": "[6]; CAR-SMASh T cells, 3 μM", "value": "reduces expression of activation/exhaustion markers"},
      {"measurement": "relationship between inhibitor and expression of CAR molecules and activation/exhaustion-associated markers", "setting": "[6]; FIG. 9", "value": "dose-dependent relationship"},
      {"measurement": "concentration at which maximal effect was observed", "setting": "[6]; [10]", "value": 1, "unit": "µM"},
      {"measurement": "concentration at which near maximal effect was observed", "setting": "[6]; [10]", "value": 0.3, "unit": "µM"}
    ]},
    {"compound": "C=C[C@@H]1C[C@]1(NC(=O)[C@@H]1C[C@@H]2CN1C(=O)[C@H](C(C)(C)C)NC(=O)O[C@@H]1C[C@H]1CCCCCc1nc3ccc(OC)cc3nc1O2)C(=O)NS(=O)(=O)C1CC1.O", "note": "[grazoprevir]", "values": [
      {"measurement": "cytotoxic capacity of B7H3-BBz-SMASh CAR T cells in vivo", "setting": "[7]", "value": "dramatically reduces the cytotoxic capacity"},
      {"measurement": "in vivo CAR expression (nanoluciferase imaging)", "setting": "[8]", "value": "diminished"}
    ]},
    {"compound": "COc1ccc2c(O[C@@H]3C[C@H]4C(=O)N[C@]5(C(=O)NS(=O)(=O)C6CC6)C[C@H]5/C=C\\CCCCN(C)C(=O)[C@@H]4C3)cc(-c3nc(C(C)C)cs3)nc2c1C", "note": "[simeprevir]", "values": [
      {"measurement": "CAR expression after removal of the protease inhibitor by washing", "setting": "[1]", "value": "recovery of CAR expression"},
      {"measurement": "CAR expression after incubation with protease inhibitor", "setting": "[1]; 3 μM, various amounts of time", "value": "decrease in CAR expression"}
    ]},
    {"compound": "GD2 CAR-SMASh: GD2 scFv (14G2A) CAR with 4-1BB, CD3 zeta and C-terminal SMASh tag (SEQ ID NO: 11)", "values": [
      {"measurement": "cytotoxicity against target cells in the presence of drug (off state)", "setting": "[9]", "value": "significant cytotoxicity"}
    ]}
  ]
}
